This note sets out measurements from article PMC6176658, “Experimentally Validated Pharmacoinformatics Approach to Predict hERG Inhibition Potential of New Chemical Entities” (Frontiers in Pharmacology, 2018).

The target in this experiment is T1, hERG (Kv11.1) potassium channel (Homo sapiens, UniProt Q12809).
T1 construct: gene KCNH2
The experiment can be described thus: cell-based.

T1 sequence (Q12809 whole entry): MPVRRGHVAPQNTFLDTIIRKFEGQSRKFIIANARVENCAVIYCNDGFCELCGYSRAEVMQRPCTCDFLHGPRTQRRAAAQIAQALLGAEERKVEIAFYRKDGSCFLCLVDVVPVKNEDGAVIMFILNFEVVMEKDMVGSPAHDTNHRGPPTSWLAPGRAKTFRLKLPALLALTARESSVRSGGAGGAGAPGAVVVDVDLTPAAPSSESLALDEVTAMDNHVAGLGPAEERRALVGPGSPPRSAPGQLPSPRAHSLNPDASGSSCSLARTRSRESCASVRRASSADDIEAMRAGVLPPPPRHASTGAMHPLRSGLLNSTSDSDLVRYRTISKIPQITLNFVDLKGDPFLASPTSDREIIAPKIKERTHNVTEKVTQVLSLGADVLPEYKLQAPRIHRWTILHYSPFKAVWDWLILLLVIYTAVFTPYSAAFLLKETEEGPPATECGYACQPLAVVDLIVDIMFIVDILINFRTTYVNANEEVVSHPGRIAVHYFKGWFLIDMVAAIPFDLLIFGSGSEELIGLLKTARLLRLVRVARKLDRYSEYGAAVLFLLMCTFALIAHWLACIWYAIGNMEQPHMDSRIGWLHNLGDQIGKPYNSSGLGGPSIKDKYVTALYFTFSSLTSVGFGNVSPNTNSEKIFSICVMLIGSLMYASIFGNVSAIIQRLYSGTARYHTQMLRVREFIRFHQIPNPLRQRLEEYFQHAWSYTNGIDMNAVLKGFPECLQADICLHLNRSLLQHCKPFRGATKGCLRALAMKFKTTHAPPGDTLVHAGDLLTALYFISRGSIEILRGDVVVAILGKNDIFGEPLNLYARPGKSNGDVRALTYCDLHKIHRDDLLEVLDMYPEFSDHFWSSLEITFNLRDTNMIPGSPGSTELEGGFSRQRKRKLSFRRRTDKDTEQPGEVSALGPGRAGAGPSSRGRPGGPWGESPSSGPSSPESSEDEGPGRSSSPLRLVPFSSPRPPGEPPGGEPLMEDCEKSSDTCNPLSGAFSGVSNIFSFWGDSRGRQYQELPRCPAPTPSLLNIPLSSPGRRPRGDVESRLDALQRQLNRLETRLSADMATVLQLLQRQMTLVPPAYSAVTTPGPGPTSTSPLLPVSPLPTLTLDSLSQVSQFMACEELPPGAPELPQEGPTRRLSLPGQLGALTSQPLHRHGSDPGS

With `CCOC(=O)c1cc(C)n(-c2ccccc2)c1C` [OSM-S-31], the IC50 was determined as 3.89 µM.

Usually IC50 stands for the concentration needed to halve the response being measured. A high value points to a need for much substance.
